Measurements from article PMC6271825, “Synthesis and Cytotoxic Activity Evaluation of Novel Arylpiperazine Derivatives on Human Prostate Cancer Cell Lines” (Molecules, 2014).

How the values were obtained:
Type in all cases: cell-based
[1] = tested on: LNCaP cells; assay: CCK-8 in vitro cytotoxicity assay, LNCaP; details: human prostate cancer cell line LNCaP, CCK-8, 24 h exposure, mean ± SD of three experiments
Description: (§1) The synthesized target compounds 5 to 29 were evaluated for their in vitro cytotoxic activities against the three human prostate cancer cell lines (PC-3, LNCaP, and DU145), and compared with their effects on human prostate epithelial cell line RWPE-1 by CCK-8 assay.
(§2) PC-3 and RWPE-1 cells were cultured in Dulbecco’s modification Eagle’s medium (DMEM, Invitrogen, Carlsbad, CA, USA) supplemented with 10% fetal bovine serum (FBS, Hyclone, Logan, UT, USA), 100 U/mL penicillin and 0.1 mg/mL streptomycin (Invitrogen). DU145 cells were cultured in RPMI1640 media supplemented with 10% fetal bovine serum (FBS, Hyclone), 100 U/mL penicillin and 0.1 mg/mL streptomycin (Invitrogen). LNCaP cells were cultured in F12 media supplemented with 10% fetal bovine serum (FBS, Hyclone), 100 U/mL penicillin and 0.1 mg/mL streptomycin (Invitrogen). The cells were incubated at 37 °C in a humidified atmosphere with 5% CO2.
(§3) Cell proliferation was measured with the Cell Counting Kit-8 (CCK-8) assay kit (Dojindo Corp., Kumamoto, Japan). Cells were harvested during logarithmic growth phase and seeded in 96-well plates at a density of 1 × 10^5 cells/mL, and cultured at 37 °C in a humidified incubator (5% CO2) for 24 h, followed by exposure to various concentrations of compounds tested for 24 h. Subsequently 10 μL of CCK-8 (Dojindo) was added to each well, the cells were then incubated for an additional 1 h at 37 °C to convert WST-8 into formazan. Cell growth inhibition was determined by measuring the absorbance (Abs) at λ = 450 nm using amicroplate reader. Three independent experiments were performed. Cell growth inhibition was calculated according to the following equation: Growth inhibition = (1 − OD of treated cells/OD of control cells) × 100%
(§4) The half maximal inhibitory concentrations (IC50) were obtained from linear regression analysis of the concentration-response curves plotted for each tested compound.

[2] = tested on: PC-3 cells; assay: CCK-8 in vitro cytotoxicity assay, PC-3; details: human prostate cancer cell line PC-3, CCK-8, 24 h exposure, mean ± SD of three experiments
Description: as §1, §2, §3, §4

[3] = tested on: RWPE-1 cells; assay: CCK-8 in vitro cytotoxicity assay, RWPE-1 normal prostate epithelial cells; details: human prostate epithelial cell line RWPE-1 (normal), CCK-8, 24 h exposure, mean ± SD of three experiments
Description: as §1, §2, §3, §4

[4] = tested on: DU145 cells; assay: CCK-8 in vitro cytotoxicity assay, DU145; details: DU-145; human prostate cancer cell line DU145, CCK-8, 24 h exposure, mean ± SD of three experiments
Description: as §1, §2, §3, §4

Row | Compound | IC50 ([1]; Homo sapiens, LNCaP, 24 h) | IC50 [2] | IC50 [3] | IC50 [4] | IC50 [1]
1 | c1ccc(N2CCN(CCc3ccc(COc4ccc5c(c4)OCO5)cc3)CC2)cc1 [Compound 5, 1-(2-(4-((Benzo[d][1,3]dioxol-5-yloxy)methyl)phenyl)ethyl)-4-phenylpiperazine] | 27.9 ± 1.72 µM | > 50 µM | > 50 µM | > 50 µM | –
2 | c1ccc(CN2CCN(CCc3ccc(COc4ccc5c(c4)OCO5)cc3)CC2)cc1 [Compound 6, 1-(2-(4-((Benzo[d][1,3]dioxol-5-yloxy)methyl)phenyl)ethyl)-4-benzylpiperazine] | 27.7 ± 4.17 µM | > 50 µM | 38.8 ± 0.77 µM | 28.9 ± 0.98 µM | –
3 | c1ccc(N2CCN(CCc3ccc(COc4ccc5c(c4)OCO5)cc3)CC2)nc1 [Compound 7, 1-(2-(4-((Benzo[d][1,3]dioxol-5-yloxy)methyl)phenyl)ethyl)-4-(pyridin-2-yl)piperazine] | 31.2 ± 0.63 µM | > 50 µM | 41.1 ± 0.54 µM | > 50 µM | –
4 | c1cnc(N2CCN(CCc3ccc(COc4ccc5c(c4)OCO5)cc3)CC2)nc1 [Compound 8, 2-(4-(2-(4-((Benzo[d][1,3]dioxol-5-yloxy)methyl)phenyl)ethyl)piperazin-1-yl)pyrimidine] | 26.6 ± 0.86 µM | > 50 µM | 31.7 ± 3.14 µM | 8.25 ± 0.16 µM | –
5 | Cc1ccccc1N1CCN(CCc2ccc(COc3ccc4c(c3)OCO4)cc2)CC1 [Compound 9, 1-(2-(4-((Benzo[d][1,3]dioxol-5-yloxy)methyl)phenyl)ethyl)-4-o-tolylpiperazine] | < 5 µM | > 50 µM | 31 ± 1.57 µM | > 50 µM | 3.47 ± 0.36 µM
6 | Cc1ccc(N2CCN(CCc3ccc(COc4ccc5c(c4)OCO5)cc3)CC2)cc1 [Compound 10, 1-(2-(4-((Benzo[d][1,3]dioxol-5-yloxy)methyl)phenyl)ethyl)-4-p-tolylpiperazine] | 31.9 ± 0.89 µM | > 50 µM | > 50 µM | 47.8 ± 2.02 µM | –
7 | Cc1cccc(N2CCN(CCc3ccc(COc4ccc5c(c4)OCO5)cc3)CC2)c1 [Compound 11, 1-(2-(4-((Benzo[d][1,3]dioxol-5-yloxy)methyl)phenyl)ethyl)-4-m-tolylpiperazine] | > 50 µM | > 50 µM | > 50 µM | > 50 µM | –
8 | COc1ccccc1N1CCN(CCc2ccc(COc3ccc4c(c3)OCO4)cc2)CC1 [Compound 12, 1-(2-(4-((Benzo[d][1,3]dioxol-5-yloxy)methyl)phenyl)ethyl)-4-(2-methoxyphenyl)piperazine] | 30.7 ± 0.83 µM | > 50 µM | > 50 µM | > 50 µM | –
9 | COc1ccc(N2CCN(CCc3ccc(COc4ccc5c(c4)OCO5)cc3)CC2)cc1 [Compound 13, 1-(2-(4-((Benzo[d][1,3]dioxol-5-yloxy)methyl)phenyl)ethyl)-4-(4-methoxyphenyl)piperazine] | 28.3 ± 0.49 µM | > 50 µM | > 50 µM | > 50 µM | –
10 | COc1cccc(N2CCN(CCc3ccc(COc4ccc5c(c4)OCO5)cc3)CC2)c1 [Compound 14, 1-(2-(4-((Benzo[d][1,3]dioxol-5-yloxy)methyl)phenyl)ethyl)-4-(3-methoxyphenyl)piperazine] | > 50 µM | > 50 µM | 39 ± 0.77 µM | > 50 µM | –
11 | Fc1ccccc1N1CCN(CCc2ccc(COc3ccc4c(c3)OCO4)cc2)CC1 [Compound 15, 1-(2-(4-((Benzo[d][1,3]dioxol-5-yloxy)methyl)phenyl)ethyl)-4-(2-fluorophenyl)piperazine] | – | > 50 µM | 41 ± 0.47 µM | > 50 µM | –
12 | Fc1ccc(N2CCN(CCc3ccc(COc4ccc5c(c4)OCO5)cc3)CC2)cc1 [Compound 16, 1-(2-(4-((Benzo[d][1,3]dioxol-5-yloxy)methyl)phenyl)ethyl)-4-(4-fluorophenyl)piperazine] | 32.5 ± 1.04 µM | > 50 µM | > 50 µM | > 50 µM | –
